{
  "source": "patent US10766914B2",
  "about": "“DNA alkylating agents” (OBI PHARMA, INC., priority 2015, dated 2020)",
  "key": {"[1]": {"system": "H460 non-small cell lung cancer xenograft tumor", "experiment": "Example 4-A antitumor efficacy, ectopic H460 NSCLC xenograft model", "type": "in vivo, female nude mice (nu/nu)", "conditions": "60 mg/kg ip Q3D × 5; H460", "text": "(§1) Specific pathogen-free homozygous female nude mice (nu/nu, Charles River Laboratories) were used. Mice were given food and water ad libitum and housed in microisolator cages. Four to six week old animals were identified by microchips (Locus Technology, Manchester, Md., USA) at the time of the experiments. All animal studies were approved by the Institutional Animal Care and Use Committee at Threshold Pharmaceuticals, Inc.\n(§2) All cell lines were from the American Type Culture Collection (ATCC, Rockville, Md., USA).\n(§3) Cells were mixed with Matrigel (50% with exception for 30% in the H460) and 0.2 ml per mouse were subcutaneously implanted to the flank area of the animals. When tumor size reached 100-150 250 mm3, mice were randomized into experimental or vehicle groups with 10 mice/group and treatment was started (Day 1). The tested compounds were formulated in 5% DMSO in D5W. The regimens employed in the examples include IP, QD×5/wk (5 days on, 2 days off) as one cycle, for a total of 2 cycles; IP, once; IP, weekly for total 3 weeks; and IV, weekly for 3 weeks. Tumor growth and body weight were measured twice a week. Tumor volume was calculated as (length×width2)/2. Drug efficacy was assessed as Tumor Growth Inhibition (TGI) and Tumor Growth Delay (TGD). TGI was defined as (1−ΔT/ΔC)×100, where ΔT/ΔC presented the ratio of the change in mean (or median, if variation within the group was relatively large) tumor volume of the treated group and of the control group. TGD was calculated as the extra days for the treated tumor to reach 500 mm3 or 1000 mm3 as compared to the control group. Animals were culled when individual tumor size reached over 2000 mm3 or mean tumor volume exceeded 1000 mm3 in the group. Data are expressed as the mean±SEM. One-way analysis of variance with Dunnett post comparison test (GraphPad Prism 4) or two-tailed student's t-test were used for analysis. A P level <0.05 was considered statistically significant.\nCompounds provided herein were tested in vivo human tumor xenograft models and compared to standard chemotherapeutic agents such as gemcitabine, nab-paclitaxel. […] The compound was dosed as follows: daily IP dosing: 5 doses then 2 days off then 5 more doses starting at 100 mm^3 tumors on day 1 (10 animals per group median tumor volume). It is contemplated that in some embodiments, the compounds provided herein are activated by human and not by mouse enzymes. The antitumor effects and the safety of administration are graphically illustrated in FIGS. 3-20 below."}, "[2]": {"experiment": "Example 4-A body weight change, H460 xenograft study", "type": "in vivo, female nude mice (nu/nu)", "conditions": "60 mg/kg ip Q3D × 5", "experimental": "as §3, with “A P level <0.05 was considered statistically significant.” left out"}, "H460 cells": {"system": "H460 cells", "experiment": "Proliferation assay in H460 cells (2 hr exposure, AlamarBlue)", "type": "cell-based, human", "conditions": "Homo sapiens, NCI-H460, 2 hrs exposure, wash, 70 hrs growth, read-out: IC 50 in proliferation assay in H460 cells", "summary_of_the_method": "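H460 cells seeded at 4×10^3/well, grown 24 h, then exposed to compound for 2 h at 37 °C. Drug was washed off and cells were regrown 70 h in fresh medium. Viable cells were read by AlamarBlue, and IC50 was taken as the concentration giving 50% growth inhibition.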"}, "H460 NSCLC xenograft": {"system": "H460 NSCLC xenograft", "experiment": "Example 4-G antitumor efficacy, ectopic H460 NSCLC xenograft model", "type": "in vivo, female nude mice (nu/nu)", "conditions": "ip, Q7D × 3", "text": "as §1, §2, §3\n(§4) The compounds TH-3040 and TH-3045 were tested in a H460 model. The compounds were dosed as follows. A dose-dependent TH-3040 or TH-3045 was given IP weekly for 3 weeks, from 5 to 45 mg/kg starting at 100 mm^3 tumors on day 1 (10 animals per group average tumor volume). The antitumor effects and the safety of administration are graphically illustrated below."}, "[3]": {"experiment": "Example 4-G body weight change, H460 xenograft study", "type": "in vivo, female nude mice (nu/nu)", "conditions": "ip, Q7D × 3", "experimental": "as §3, §4"}, "[4]": {"system": "A 549 non-small cell lung xenograft", "experiment": "Example 4-B antitumor efficacy, ectopic A549 NSCLC xenograft model", "type": "in vivo, female nude mice (nu/nu)", "conditions": "10 mg/kg ip QD × 5/wk × 2 wks", "text": "as §1, §2, §3\nThe dosing was as follows. Daily IP dosing: 5 doses then 2 days off then 5 more doses starting at 110 mm^3 tumors on day 1 (10 animals per group average tumor volume).\nDoses were selected by first doing a toxicity test in CD1 mice as described above. The compounds were tested against Thio-tepa."}, "[5]": {"experiment": "Example 4-B body weight change, A549 xenograft study", "type": "in vivo, female nude mice (nu/nu)", "conditions": "10 mg/kg ip QD × 5/wk × 2 wks", "experimental": "as §3\nAntitumor effects of compounds provided herein were determined on A 549 non-small cell lung xenograft model in comparison with a chemotherapy agent, thiotepa. The dosing was as follows. Daily IP dosing: 5 doses then 2 days off then 5 more doses starting at 110 mm^3 tumors on day 1 (10 animals per group average tumor volume). The antitumor effects and the safety of administration are graphically illustrated below."}, "[6]": {"system": "A375 melanoma human tumor xenograft", "experiment": "Example 4-C antitumor efficacy, ectopic A375 melanoma xenograft model", "type": "in vivo, female nude mice (nu/nu)", "conditions": "qd × 5 × 2, ip", "text": "as §1, §2, §3\nhis study employed an A375 melanoma human tumor xenograft model and various compounds provided herein were compared to thiotepa and the approved anti melanoma drug, nab-Paclitaxel."}, "[7]": {"experiment": "Example 4-C body weight change, A375 xenograft study", "type": "in vivo, female nude mice (nu/nu)", "conditions": "10 mpk, qd × 5 × 2, ip", "experimental": "as §3\nhis study employed an A375 melanoma human tumor xenograft model and various compounds provided herein were compared to thiotepa and the approved anti melanoma drug, nab-Paclitaxel. The antitumor effects and the safety of administration are graphically illustrated below."}, "[8]": {"experiment": "Pharmacokinetics in CD-1 mice following a single intraperitoneal dose (parent and TH2660)", "conditions": "mouse, in vivo, ip, parent compound", "experimental": "The pharmacokinetics of TH2873, TH2883, TH2888, TH2890, TH2901 and TH2926 were determined in CD-1 mice following a single intraperitoneal dose.\nThe pharmacokinetics of TH2660, the active metabolite, following a single intraperitoneal dose of TH2873, TH2883, TH2888, TH2890, TH2901 and TH2926 are shown below."}},
  "data": [
    {"smiles": "Nc1ccn([C@@H]2O[C@H](CO)[C@@H](O)C2(F)F)c(=O)n1", "note": "[GEM, gemcitabine, reference compound]", "values": [
      {"measurement": "TGD 500", "setting": "[1]", "result": 7, "unit": "days"},
      {"measurement": "TGD 1000", "setting": "[1]", "result": 7, "unit": "days"},
      {"measurement": "TGI", "setting": "[1]", "result": 42.7, "unit": "%"},
      {"measurement": "Max. BW loss %", "setting": "[2]", "result": 4.9, "unit": "%"}
    ]},
    {"smiles": "C[C@@H](OP(=O)(N1CC1)N1CC1)c1ccc([N+](=O)[O-])c(Oc2ccc(-c3ccccc3)cc2)c1", "note": "[Compound 3045]", "values": [
      {"measurement": "IC50", "setting": "H460 cells", "result": 4, "unit": "nM"},
      {"measurement": "TGD 500", "setting": "H460 NSCLC xenograft; 5 mpk", "result": 48, "unit": "days"},
      {"measurement": "TGI", "setting": "H460 NSCLC xenograft; 5 mpk", "result": 104.0, "unit": "%"},
      {"measurement": "TGD 500", "setting": "H460 NSCLC xenograft; 15 mpk", "result": 70, "unit": "days"},
      {"measurement": "TGI", "setting": "H460 NSCLC xenograft; 15 mpk", "result": 104.8, "unit": "%"},
      {"measurement": "TGD 500", "setting": "H460 NSCLC xenograft; 45 mpk", "result": 86, "unit": "days"},
      {"measurement": "TGI", "setting": "H460 NSCLC xenograft; 45 mpk", "result": 106.3, "unit": "%"},
      {"measurement": "Max BW loss", "setting": "[3]; 5 mpk", "result": 0.0, "unit": "%"},
      {"measurement": "Max BW loss", "setting": "[3]; 15 mpk", "result": 2.8, "unit": "%"},
      {"measurement": "Max BW loss", "setting": "[3]; 45 mpk", "result": 2.4, "unit": "%"}
    ]},
    {"smiles": "CN(C)C(=O)c1cccc(Oc2cc(COP(=O)(N3CC3)N3CC3)ccc2[N+](=O)[O-])c1", "note": "[Compound 2889]", "values": [
      {"measurement": "IC50", "setting": "H460 cells", "result": 3, "unit": "nM"},
      {"measurement": "TGD 500", "setting": "[4]", "result": 62, "unit": "days"},
      {"measurement": "TGI", "setting": "[4]", "result": 90.1, "unit": "%"},
      {"measurement": "Max. BW loss %", "setting": "[5]", "result": 1.1, "unit": "%"},
      {"measurement": "TGD 500", "setting": "[6]; 10 mpk", "result": 13, "unit": "days"},
      {"measurement": "TGD 1000", "setting": "[6]; 10 mpk", "result": 15, "unit": "days"},
      {"measurement": "inhibition in vivo at 10 mg/kg", "setting": "[6]; Mus musculus, A-375, 10 mpk, read-out: TGI", "result": 75.6, "unit": "%"},
      {"measurement": "Max. BW loss %", "setting": "[7]", "result": 0, "unit": "%"},
      {"measurement": "AUC", "setting": "[8]", "result": 598, "unit": "ng·h/mL"},
      {"measurement": "Cmax", "setting": "[8]", "result": 2480, "unit": "ng/mL"},
      {"measurement": "Tmax", "setting": "[8]", "result": 5, "unit": "min"},
      {"measurement": "half-life", "setting": "[8]", "result": 10.3, "unit": "min"}
    ]}
  ]
}
